Assay results published in patent US20210094933A1, “RAPAFUCIN DERIVATIVE COMPOUNDS AND METHODS OF USE THEREOF” (The Johns Hopkins University, priority 2019, published 2021).
≈ marks a conversion by molar mass, not a printed value. Read-outs that look alike come from different tables or passages of the source.

How the values were obtained:
[1] = Cell proliferation assay, single concentration, response relative to DMSO; cell line indicated in each table; type: cell-based; conditions: A549 cells
Procedure: (§1) Cell Proliferation Assay (Prolif.) Guo et al. (2018) Nat. Chem. 11:254-63. Specific cell lines are indicated in each assay and cultured in complete growth media. Activity is scored according to the IC50 values relative to DMSO control. “Low” indicates an IC50 greater than 600 nM, “Medium” indicates an IC50 between 300 nM and 600 nM “High” indicates an IC50 less than 300 nM. “Rel.Uptake” refers to uptake activity characterization relative to a single concentration assay. “Low” indicates a response greater than 0.6 times the activity relative to DMSO, “Medium” indicates a response between 0.6 and 0.3 times the activity relative to DMSO, “High” indicates a response less than 0.3 times the activity relative to DMSO.

A549 = test: Cell proliferation assay (Prolif.), IC50 relative to DMSO control; type: cell-based; conditions: A549 cells; for Prolif, A549: IC50 class relative to DMSO control
Procedure: as §1

[2] = Nucleoside uptake assay, single concentration (Rel.Uptake), response relative to DMSO; cell line indicated in each table; type: cell-based; conditions: 293 T cells, nucleoside uptake at single concentration
Procedure: Nucleoside Uptake Assay (uptake). Nuceloside uptake assays were performed with using 3H-Thymidine as described in Guo et al. (2018) Nat. Chem, 11:254-63. Specific cell lines are indicated in each assay and cultured in complete growth media. Activity is scored according to the IC50 values relative to DMSO control. “Low” indicates an IC50 greater than 600 nM, “Medium” indicates an IC50 between 300 nM and 600 nM “High” indicates an IC50 less than 300 nM. “Rel.Uptake” refers to uptake activity characterization relative to a single concentration assay. “Low” indicates a response greater than 0.6 times the activity relative to DMSO, “Medium” indicates a response between 0.6 and 0.3 times the activity relative to DMSO, “High” indicates a response less than 0.3 times the activity relative to DMSO.

Sprague Dawley Rats = test: Rat Renal Ischemia-Reperfusion model; type: in vivo; conditions: compound given 30 min prior to right nephrectomy and left renal clamping, 24 hours of reperfusion
Procedure: Briefly, Sprague Dawley Rats were treated test compound 30 min prior to a right nephrectomy and with underwent clamping of the left renal clamping for 15 mins. After 24 hours of reperfusion, blood was collected to measure biomarkers for kidney damage and the kidney was removed for histology. […] SHAM indicates an animal group with right nephrectomy without ischemic injury. VE indicates vehicle. DPA indicates dipyridamole administered in a dosage of 10 mg/kg. Compound 1593 was administered at a high dosage (12 mg/kg) or a low dosage (4 mg/kg). Compound 1594 was administered at 4 mg/kg.

[3] = Aqueous solubility in PBS solution; type: physicochemical; conditions: aqueous buffer
Procedure: Compound 1593 is synthesized according to Scheme 42. The aqueous solubility of compound 1593 and its counterpart structure without carboxylic acid substitutent, compound 1594, is shown in Table 18. Without the carboxylic acid substitutent, compound 1594 merely has a solubility of about 0.1 mg/mL in PBS solution.

Row | Compound | Rel. Prolif., A549 [1] | Prolif, A549 (A549) | also measured
1 | CCCC[C@H]1C(=O)N[C@@H](Cc2ccc3ccccc3c2)C(=O)N(C)[C@@H](COC(C)(C)C)C(=O)NCC(=O)N(C)CCC=CC(=O)OCC(C)(C)C(=O)C(=O)N2CCCC[C@H]2C(=O)O[C@H](CCc2cc(OC)c(OC)c(OC)c2)c2cccc(c2)OCC(=O)N1C [Compound 560] | medium | medium | –
2 | CCCC[C@H]1C(=O)C[C@@H](Cc2ccc3ccccc3c2)C(=O)N(C)[C@@H](COC(C)(C)C)C(=O)NCC(=O)N(C)CCC=CC(=O)OCC(C)(C)C(=O)C(=O)N2CCCC[C@H]2C(=O)O[C@H](CCc2ccc(OC)c(OC)c2OC)c2cccc(c2)OCC(=O)N1C [Compound 561] | medium | medium | –
3 | CCCC[C@H]1C(=O)N[C@@H](Cc2ccc3ccccc3c2)C(=O)N(C)[C@@H](COC(C)(C)C)C(=O)NCC(=O)N(C)CCC=CC(=O)OCC(C)(C)C(=O)C(=O)N2CCCC[C@H]2C(=O)O[C@H](CCc2cc(OC)c(OC)cc2OC)c2cccc(c2)OCC(=O)N1C [Compound 562] | medium | medium | –
4 | CCCC[C@H]1C(=O)N[C@@H](Cc2ccc3ccccc3c2)C(=O)N(C)[C@@H](COC(C)(C)C)C(=O)NCC(=O)N(C)CCC=CC(=O)OCC(C)(C)C(=O)C(=O)N2CCCC[C@H]2C(=O)O[C@H](CCc2cc(OC)cc(OC)c2OC)c2cccc(c2)OCC(=O)N1C [Compound 563] | low | low | –
5 | CCCC[C@H]1C(=O)N[C@@H](Cc2ccc3ccccc3c2)C(=O)N(C)[C@@H](COC(C)(C)C)C(=O)NCC(=O)N(C)CCC=CC(=O)OCC(C)(C)C(=O)C(=O)N2CCCC[C@H]2C(=O)O[C@H](CCc2c(OC)ccc(OC)c2OC)c2cccc(c2)OCC(=O)N1C [Compound 564] | low | low | –
6 | CCCC[C@H]1C(=O)N[C@@H](Cc2ccc3ccccc3c2)C(=O)N(C)[C@@H](COC(C)(C)C)C(=O)NCC(=O)N(C)CCC=CC(=O)OCC(C)(C)C(=O)C(=O)N2CCCC[C@H]2C(=O)O[C@H](CCc2ccc(OC)c(OC)c2O)c2cccc(c2)OCC(=O)N1C [Compound 565] | medium | medium | –
7 | CCCC[C@H]1C(=O)N[C@@H](Cc2ccc3ccccc3c2)C(=O)N(C)[C@@H](COC(C)(C)C)C(=O)NCC(=O)N(C)CCC=CC(=O)OCC(C)(C)C(=O)C(=O)N2CCCC[C@H]2C(=O)O[C@H](CCc2cc(O)c(OC)c(OC)c2)c2cccc(c2)OCC(=O)N1C [Compound 566] | medium | medium | –
8 | CCCC[C@H]1C(=O)N[C@@H](Cc2ccc3ccccc3c2)C(=O)N(C)[C@@H](COC(C)(C)C)C(=O)NCC(=O)N(C)CCC=CC(=O)OCC(C)(C)C(=O)C(=O)N2CCCC[C@H]2C(=O)O[C@H](CCc2cc(OC)c(OC)cc2O)c2cccc(c2)OCC(=O)N1C [Compound 567] | medium | medium | –
9 | CCCC[C@H]1C(=O)N[C@@H](Cc2ccc3ccccc3c2)C(=O)N(C)[C@@H](COC(C)(C)C)C(=O)NCC(=O)N(C)CCC=CC(=O)OCC(C)(C)C(=O)C(=O)N2CCCC[C@H]2C(=O)O[C@H](CCc2cc(F)c(OC)c(OC)c2)c2cccc(c2)OCC(=O)N1C [Compound 568] | medium | medium | –
10 | CCCC[C@H]1C(=O)N[C@@H](Cc2ccc3ccccc3c2)C(=O)N(C)[C@@H](COC(C)(C)C)C(=O)NCC(=O)N(C)CCC=CC(=O)OCC(C)(C)C(=O)C(=O)N2CCCC[C@H]2C(=O)O[C@H](CCc2cc(OC)c(OC)cc2F)c2cccc(c2)OCC(=O)N1C [Compound 569] | medium | medium | –
11 | CCCC[C@H]1C(=O)N[C@@H](Cc2ccc3ccccc3c2)C(=O)N(C)[C@@H](COC(C)(C)C)C(=O)NCC(=O)N(C)CCC=CC(=O)OCC(C)(C)C(=O)C(=O)N2CCCC[C@H]2C(=O)O[C@H](CCc2ccc(OC)c(OC)c2F)c2cccc(c2)OCC(=O)N1C [Compound 570] | medium | medium | –
12 | CCCC[C@H]1C(=O)N[C@@H](Cc2ccc3ccccc3c2)C(=O)N(C)[C@@H](COC(C)(C)C)C(=O)NCC(=O)N(C)CCC=CC(=O)OCC(C)(C)C(=O)C(=O)N2CCN(C(=O)OCC3c4ccccc4-c4ccccc43)C[C@H]2C(=O)O[C@H](CCc2ccc(OC)c(OC)c2)c2cccc(c2)OCC(=O)N1C [Compound 571] | low | low | –
13 | CCCC[C@H]1C(=O)N[C@@H](Cc2ccc3ccccc3c2)C(=O)N(C)[C@@H](COC(C)(C)C)C(=O)NCC(=O)N(C)CCC=CC(=O)OCC(C)(C)C(=O)C(=O)N2CCN(C)C[C@H]2C(=O)O[C@H](CCc2ccc(OC)c(OC)c2)c2cccc(c2)OCC(=O)N1C [Compound 572] | medium | medium | –
14 | CCCC[C@H]1C(=O)N[C@@H](Cc2ccc3ccccc3c2)C(=O)N(C)[C@@H](COC(C)(C)C)C(=O)NCC(=O)N(C)CCC=CC(=O)OCC(C)(C)C(=O)C(=O)N2CCCC[C@H]2C(=O)O[C@H](CCc2ccc(OC)c(OC)c2)c2cc(ccc2F)OCC(=O)N1C [Compound 573] | low | low | –
15 | CCCC[C@H]1C(=O)N[C@@H](Cc2ccc3ccccc3c2)C(=O)N(C)[C@@H](COC(C)(C)C)C(=O)NCC(=O)N(C)CCC=CC(=O)OCC(C)(C)C(=O)C(=O)N2CCCC[C@H]2C(=O)O[C@H](CCc2ccc(OC)c(OC)c2)c2cc(F)cc(c2)OCC(=O)N1C [Compound 574] | low | low | –
16 | CCCC[C@H]1C(=O)N[C@@H](Cc2ccc3ccccc3c2)C(=O)N(C)[C@@H](COC(C)(C)C)C(=O)NCC(=O)N(C)CCC=CC(=O)OCC(C)(C)C(=O)C(=O)N2CCCC[C@H]2C(=O)O[C@H](CCc2ccc(OC)c(OC)c2)c2ccc(F)c(c2)OCC(=O)N1C [Compound 576] | medium | medium | –
17 | CCCC[C@H]1C(=O)N[C@@H](Cc2ccc3ccccc3c2)C(=O)N(C)[C@@H](COC(C)(C)C)C(=O)NCC(=O)N(C)CCC=CC(=O)OCC(C)(C)C(=O)C(=O)N2CCCC[C@H]2C(=O)O[C@H](CCc2ccc(OC)c(OC)c2)c2cccc(c2F)OCC(=O)N1C [Compound 1563] | – | high | Rel. Uptake, 293 T [2]: high
18 | CCCC[C@H]1C(=O)N[C@@H](Cc2ccc3ccccc3c2)C(=O)N(C)[C@@H](COC(C)(C)C)C(=O)NCC(=O)N(C)CCC=CC(=O)OCC(C)(C)C(=O)C(=O)N2CCCC[C@H]2C(=O)O[C@H](CCc2ccc(OC)c(O)c2)c2cccc(c2)OCC(=O)N1C [Compound 1564] | – | high | Rel. Uptake, 293 T [2]: high
19 | CCCC[C@H]1C(=O)N[C@@H](Cc2ccc3ccccc3c2)C(=O)N(C)[C@@H](COC(C)(C)C)C(=O)NCC(=O)N(C)CCC=CC(=O)OCC(C)(C)C(=O)C(=O)N2CCCC[C@H]2C(=O)O[C@H](CCc2ccc(OC)c(OC)c2)c2cncc(c2)OCC(=O)N1C [Compound 1565] | – | low | Rel. Uptake, 293 T [2]: low
20 | C=C1NCC(=O)N(C)CC/C=C\C(=O)OCC(C)(C)C(=O)C(=O)N2CCCC[C@H]2C(=O)O[C@H](CCc2ccc(OC)c(OC)c2)c2cccc(c2)NC(=O)CCC(=O)N(C)[C@@H](CC(C)C)C(=O)N[C@H](Cc2ccccc2)C(=O)N(C)[C@H]1[C@@H](C)CC [Compound 1592] | – | – | Rel. Uptake, 293 T [2]: Low (“Low” indicates a response greater than 0.6 times the activity relative to DMSO); IC50 (A549; Homo sapiens): < 300 nM
21 | COc1ccc(CC[C@H]2OC(=O)[C@@H]3CCCCN3C(=O)C(=O)C(C)(C)COC(=O)/C=C/CCN(C)C(=O)[C@H](CC(C)C)N(C)C(=O)[C@H]3CCCN3C(=O)[C@H](Cc3ccccc3)NC(=O)[C@H](c3ccccc3)NC(=O)CCC(=O)Nc3cccc2c3)cc1OC [Compound 1594] | – | – | Rel. Uptake, 293 T [2]: Low (“Low” indicates a response greater than 0.6 times the activity relative to DMSO); efficacy in Rat Renal Ischemia-Reperfusion model (Sprague Dawley Rats): efficacious; solubility ([3]; PBS, read-out: Solubility): > 100 µg/mL; solubility ([3]; read-out: solubility in PBS solution): ~100 µg/mL (≈ 81.7 µM)
